For orientation: Kd means the constant that tells how readily two partners part at equilibrium.

Structures can show the parent of a compound that is named as a salt.

Data set [1] addresses Hsp70. The settings on record: cited from earlier work.
Data set [2] relates to Hsp70. The settings on record: cited from earlier work. The source holds these as a separate data set.
The conditions of data set [3]: basic or acidic aqueous solution; cited from earlier work.
In data set [4] the target is T1, HSP70 (Mus musculus, UniProt Q61696).
T1 construct: imaging an inducible target using an endogenous protein involved in stress response; from tissue; host or cells: heated right hind limb of live mice
As to the kind of experiment: in vivo analysis of FAM-labeled bifunctional molecule after hind limb heating. Further details: species or system mice. The following applies: 20 nmol i.v., about 4 hours post-injection (8 hrs post hyperthermia), dermis dissected. Here is the method: As a control, 6-carboxyfluorescein (6-FAM) was administered at the same dose (20 nmol) in the same manner. Due to the high intrinsic autofluorescence of the dermis, experimental mice were sacrificed, the dermis dissected, and imaged on a small animal dedicated optical system (Xenogen/Caliper IVIS-200) using the appropriate excitation/emission filter set.

T1 sequence (Q61696 whole entry): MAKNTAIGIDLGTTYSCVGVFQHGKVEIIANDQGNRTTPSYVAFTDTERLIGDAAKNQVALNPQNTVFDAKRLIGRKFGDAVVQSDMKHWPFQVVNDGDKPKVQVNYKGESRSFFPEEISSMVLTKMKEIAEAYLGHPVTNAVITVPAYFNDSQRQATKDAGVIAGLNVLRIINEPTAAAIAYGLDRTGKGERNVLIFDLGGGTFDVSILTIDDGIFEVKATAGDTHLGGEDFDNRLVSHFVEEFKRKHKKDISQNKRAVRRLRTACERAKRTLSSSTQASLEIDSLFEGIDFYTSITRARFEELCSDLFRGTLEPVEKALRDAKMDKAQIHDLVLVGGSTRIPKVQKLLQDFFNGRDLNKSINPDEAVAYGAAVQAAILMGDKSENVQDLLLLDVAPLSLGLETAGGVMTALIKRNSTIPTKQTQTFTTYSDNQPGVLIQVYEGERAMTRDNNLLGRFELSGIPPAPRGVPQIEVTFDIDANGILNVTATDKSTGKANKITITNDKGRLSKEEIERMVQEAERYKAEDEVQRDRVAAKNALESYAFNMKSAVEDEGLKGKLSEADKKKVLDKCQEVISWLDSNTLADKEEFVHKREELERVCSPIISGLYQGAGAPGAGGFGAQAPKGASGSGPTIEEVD

With `N=C(N)NCCCCCCC(=O)N[C@@H](O)C(=O)NCCCCNCCCN` (racemic) [Compound 15-DSG, (±)7-[(aminoiminomethyl)amino]-N-[2-[[4-[(3-aminopropyl)amino]butyl]amino]-1-hydroxy-2-oxoethyl]heptanamide trihydrochloride], on Hsp70 [1], the dissociation constant (Kd) was 4 µM. For the same compound, the “effect on Hsp70 steady state ATPase activity” value in the data set with Hsp70 [2] was “stimulates”. Further, the hydrolytic stability result in data set [3] is reported as “hydrolyses gradually”.

Regarding `O=C(O)c1ccc2c(c1)C1(OC2=O)c2ccc(O)cc2Oc2cc(O)ccc21` [Compound 6-FAM, 6-carboxyfluorescein], the “fluorescence in heated limb tissue” value at HSP70 [4] was “minimal level of fluorescence”.

The values are drawn from US20110270151A1, “IMAGE-GUIDED ENERGY DEPOSITION FOR TARGETED DRUG DELIVERY” (The Methodist Hospital Research Institute, priority 2008, published 2011).
